In patent US20240190854A1, “PYRIMIDINE OR PYRIDINE DERIVATIVES USEFUL AS HCN2 MODULATORS” (King's College London, priority 2021, published 2024):
Where a name gives a salt, the structure may show the parent alone.

Tests used:
HCN2 = HCN2 (Homo sapiens (Human), UniProt Q9UL51); experiment: HCN2 current assay using PatchXpress 7000A; assay type: cell-based; settings: PatchXpress protocol; read-out: PX HCN2 IC50
Description: (§1) Example 126A, Using PatchXpress 7000A
(§2) Solutions for recording HCN currents were:
The membrane voltage was then stepped back to −30 mV for a further 8 seconds.
(§3) The peak inward current measured at the end of the pulse to −110 mV (HCN1 and HCN2) or −130 mV (HCN4) was measured and any leak current subtracted to calculate the HCN current. The HCN current amplitude was measured after each control or compound addition and normalized to the control amplitude (Control A).
(§4) All experiments were performed at room temperature (approximately 22° C.).
(§5) Each test compound concentration was applied to the cell for seven (7) minutes, at which point the next cumulative concentration was applied.

HCN4 = HCN4 (Homo sapiens (Human), UniProt Q9Y3Q4); experiment: HCN4 current assay using PatchXpress 7000A; assay type: cell-based; settings: PatchXpress protocol; read-out: PX HCN4 IC50
Description: as §1, §2, §3, §4, §5

HCN4, sequence (Q9Y3Q4 whole entry, species assumed): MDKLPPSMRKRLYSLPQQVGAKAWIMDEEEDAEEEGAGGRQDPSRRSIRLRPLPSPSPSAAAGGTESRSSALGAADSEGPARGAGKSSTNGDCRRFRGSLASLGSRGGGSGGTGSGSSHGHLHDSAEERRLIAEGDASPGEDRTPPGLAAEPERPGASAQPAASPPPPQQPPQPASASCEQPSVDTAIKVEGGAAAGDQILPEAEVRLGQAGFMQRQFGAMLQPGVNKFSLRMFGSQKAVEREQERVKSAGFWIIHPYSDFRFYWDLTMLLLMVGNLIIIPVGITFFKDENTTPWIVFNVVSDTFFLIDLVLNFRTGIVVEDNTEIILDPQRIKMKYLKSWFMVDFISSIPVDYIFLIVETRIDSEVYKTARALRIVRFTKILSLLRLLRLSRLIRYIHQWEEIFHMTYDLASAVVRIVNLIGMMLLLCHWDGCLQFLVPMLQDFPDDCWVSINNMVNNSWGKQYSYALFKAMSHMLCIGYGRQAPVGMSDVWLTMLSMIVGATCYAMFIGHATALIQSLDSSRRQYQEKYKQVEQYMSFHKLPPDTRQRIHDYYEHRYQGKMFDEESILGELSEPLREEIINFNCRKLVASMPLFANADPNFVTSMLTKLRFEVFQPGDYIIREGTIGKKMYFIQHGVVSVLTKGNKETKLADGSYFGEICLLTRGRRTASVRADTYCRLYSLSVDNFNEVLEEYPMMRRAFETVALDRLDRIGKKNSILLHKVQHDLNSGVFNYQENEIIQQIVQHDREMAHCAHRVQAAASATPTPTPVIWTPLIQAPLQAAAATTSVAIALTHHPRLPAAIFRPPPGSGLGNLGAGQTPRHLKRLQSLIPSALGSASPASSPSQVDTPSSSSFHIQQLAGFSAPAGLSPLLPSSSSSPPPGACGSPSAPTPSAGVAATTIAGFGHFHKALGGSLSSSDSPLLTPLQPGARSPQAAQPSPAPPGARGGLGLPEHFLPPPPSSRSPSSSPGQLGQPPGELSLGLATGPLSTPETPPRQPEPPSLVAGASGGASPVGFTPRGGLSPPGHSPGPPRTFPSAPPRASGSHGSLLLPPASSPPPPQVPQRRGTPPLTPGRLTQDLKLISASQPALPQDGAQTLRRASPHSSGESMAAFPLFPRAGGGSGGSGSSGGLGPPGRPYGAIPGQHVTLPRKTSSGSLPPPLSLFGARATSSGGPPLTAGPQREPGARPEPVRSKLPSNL
HCN2, sequence (Q9UL51 whole entry): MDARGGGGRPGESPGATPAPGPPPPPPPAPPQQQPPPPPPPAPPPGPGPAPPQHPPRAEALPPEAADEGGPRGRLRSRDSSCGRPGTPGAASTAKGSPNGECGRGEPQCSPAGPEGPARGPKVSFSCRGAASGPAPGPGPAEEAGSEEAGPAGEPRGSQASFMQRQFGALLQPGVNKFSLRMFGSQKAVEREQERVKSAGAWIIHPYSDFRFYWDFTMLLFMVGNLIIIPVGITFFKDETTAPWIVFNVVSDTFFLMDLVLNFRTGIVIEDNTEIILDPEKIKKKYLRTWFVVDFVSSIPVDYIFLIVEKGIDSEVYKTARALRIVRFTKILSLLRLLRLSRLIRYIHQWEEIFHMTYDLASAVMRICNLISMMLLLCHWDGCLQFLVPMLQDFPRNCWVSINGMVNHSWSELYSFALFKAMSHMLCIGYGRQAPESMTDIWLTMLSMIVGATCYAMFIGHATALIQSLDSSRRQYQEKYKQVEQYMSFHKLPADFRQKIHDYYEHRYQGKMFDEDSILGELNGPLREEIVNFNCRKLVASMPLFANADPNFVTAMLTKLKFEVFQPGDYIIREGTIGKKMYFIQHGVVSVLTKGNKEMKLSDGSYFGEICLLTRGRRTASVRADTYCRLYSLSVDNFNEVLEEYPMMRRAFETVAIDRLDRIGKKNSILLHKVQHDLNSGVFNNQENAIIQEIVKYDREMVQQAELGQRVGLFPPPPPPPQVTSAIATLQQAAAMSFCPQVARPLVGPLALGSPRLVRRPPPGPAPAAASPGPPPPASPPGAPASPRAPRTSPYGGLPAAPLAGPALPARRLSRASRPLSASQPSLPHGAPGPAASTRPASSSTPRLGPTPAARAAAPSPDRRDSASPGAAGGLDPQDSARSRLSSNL

SMILES | IC50 (HCN2) [µM] | IC50 (HCN4) [µM]
CC(c1ccccn1)C(N)c1ccccc1-c1noc2ccccc12 (single isomer, unassigned; diastereomer 1) [Example 1, 1-[2-(Benzo[d]isoxazol-3-yl)phenyl]-2-(pyridin-2-yl)propan-1-amine hydrochloride (diastereomer 1)] | 7.4 | –
CC(c1ccccn1)C(N)c1ccccc1-c1noc2ccccc12 (single isomer, unassigned; diastereomer 2) [Example 2, 1-[2-(Benzo[d]isoxazol-3-yl)phenyl]-2-(pyridin-2-yl)propan-1-amine hydrochloride (diastereomer 2)] | 0.96 | > 30
CC(c1ccccn1)C(N)c1ccccc1-c1noc2ccccc12 (single isomer, unassigned; diastereomer 3) [Example 3, 1-[2-(Benzo[d]isoxazol-3-yl)phenyl]-2-(pyridin-2-yl)propan-1-amine hydrochloride (diastereomer 3)] | 2.3 | > 30
CS(=O)(=O)c1nc(C[C@H](N)c2ccccc2-c2noc3ccccc23)ccc1F [Example 7, (S)-1-[2-(Benzo[d]isoxazol-3-yl)phenyl]-2-(5-fluoro-6-methylsulfonylpyridine-2-yl)ethan-1-amine hydrochloride] | 5.7 | –
Cc1ccc(C(=O)N(C)C)nc1C[C@H](N)c1ccccc1-c1noc2ccccc12 [Example 8, (S)-6-{2-Amino-2-[2-(benzo[d]isoxazol-3-yl)phenyl]ethyl}-N,N,5-trimethylpyridine-2-carboxamide] | 2.5 | –
C#Cc1ccc2c(-c3ccccc3[C@@H](N)Cc3ccccn3)noc2c1 [Example 31, (S)-1-[2-(6-Ethynylbenzo[d]isoxazol-3-yl)phenyl]-2-(pyridine-2-yl)ethan-1-amine hydrochloride] | 1.6 | 6.7
N[C@@H](Cc1ccccn1)c1ccccc1-c1noc2cc(C#CCO)ccc12 [Example 32, (S)-1-[2-(6-[3-Hydroxyprop-1-yn-1-yl]benzo[d]isoxazol-3-yl)phenyl]-2-(pyridine-2-yl)ethan-1-amine hydrochloride] | 8.5 | –
N[C@@H](Cc1ccccn1)c1ccccc1-c1noc2cc(C3CC3)ccc12 [Example 34, (S)-1-[2-(6-Cyclopropylbenzo[d]isoxazol-3-yl)phenyl]-2-(pyridine-2-yl)ethan-1-amine] | 16.7 | –
CC(O)c1ccc2c(-c3ccccc3[C@@H](N)Cc3ccccn3)noc2c1 (stereo partly drawn) [Example 35, (S)-1-[2-(6-[1-Hydroxyethyl]benzo[d]isoxazol-3-yl)phenyl]-2-(pyridine-2-yl)ethan-1-amine] | 8.9 | –
N#Cc1ccc(-c2noc3ccccc23)c([C@@H](N)Cc2ccccn2)c1 [Example 37, (S)-1-[2-(Benzo[d]isoxazol-3-yl)-5-cyanophenyl]-2-(pyridine-2-yl)ethan-1-amine hydrochloride] | 14 | –
Cc1ccc([C@@H](N)Cc2ccccn2)c(-c2noc3ccccc23)c1 [Example 38, (S)-1-[2-(Benzo[d]isoxazol-3-yl)-4-methylphenyl]-2-(pyridine-2-yl)ethan-1-amine hydrochloride] | 13 | –
N[C@@H](Cc1cccc(C(O)CO)n1)c1ccccc1-c1noc2ccccc12 (stereo partly drawn) [Example 41, 1-(6-{(S)-2-Amino-2-[2-(benzo[d]isoxazol-3-yl)phenyl]ethyl}pyridine-2-yl)ethan-1,2-diol hydrochloride] | 14.1 | > 30
N[C@@H](Cc1ccccn1)c1ccccc1-c1noc2cccc(Br)c12 [Example 43, (S)-1-[2-(4-Bromobenzo[d]isoxazol-3-yl)phenyl]-2-(pyridine-2-yl)ethan-1-amine hydrochloride] | 16 | –
COc1cccc(C[C@H](N)c2ccccc2-c2noc3ccccc23)n1 [Example 115, (S)-1-[2-(Benzo[d]isoxazol-3-yl)phenyl]-2-(6-methoxypyridine-2-yl)ethan-1-amine hydrochloride] | 0.69 | –

The next lines start with the values.

IC50 (HCN2) [µM] | IC50 (HCN4) [µM] | SMILES
22.1 | – | CC[C@H](c1ccccn1)[C@H](N)c1ccccc1-c1noc2ccccc12 [Example 45, (1S,2S)-1-[2-(Benzo[d]isoxazol-3-yl)phenyl]-2-(pyridin-2-yl)butan-1-amine hydrochloride]
5.6 | 4.9 | N[C@@H](Cc1cccc(N2CC[C@@H](O)C2)n1)c1ccccc1-c1noc2ccccc12 [Example 50, (R)-1-(6-{(S)-2-Amino-2-[2-(benzo[d]isoxazol-3-yl)phenyl]ethyl}pyridine-2-yl)pyrrolidin-3-ol hydrochloride]
1.7 | 3.4 | COCCN(C)c1cccc(C[C@H](N)c2ccccc2-c2noc3ccccc23)n1 [Example 51, (S)-6-{2-Amino-2-[2-(benzo[d]isoxazol-3-yl)phenyl]ethyl}-N-(2-methoxyethyl)-N-methyl pyridin-2-amine hydrochloride]
6.2 | – | N[C@@H](Cc1cccc(N2CC[C@H](O)C2)n1)c1ccccc1-c1noc2ccccc12 [Example 53, (S)-1-(6-{(S)-2-Amino-2-[2-(benzo[d]isoxazol-3-yl)phenyl]ethyl}pyridine-2-yl)pyrrolidin-3-ol hydrochloride]
1 | 2.1 | N[C@@H](Cc1cccc(N2CCOCC2)n1)c1ccccc1-c1noc2ccccc12 [Example 54, (S)-1-[2-(Benzo[d]isoxazol-3-yl)phenyl]-2-(6-morpholinopyridine-2-yl)ethane-1-amine hydrochloride]
8.7 | – | CC(=O)Nc1cccnc1C[C@H](N)c1ccccc1-c1noc2ccccc12 [Example 76, (S)—N-(2-{2-Amino-2-[2-(benzo[d]isoxazol-3-yl)phenyl]ethyl}pyridin-3-yl)acetamide hydrochloride]
4.9 | – | N[C@@H](Cc1ncccc1C1CC1)c1ccccc1-c1noc2ccccc12 [Example 79, (S)-1-[2-(Benzo[d]isoxazol-3-yl)phenyl]-2-(3-cyclopropylpyridin-2-yl)ethan-1-amine formate]
1.9 | – | Cc1cc(C#N)cnc1C[C@H](N)c1ccccc1-c1noc2ccccc12 [Example 80, (S)-1-[2-(Benzo[d]isoxazol-3-yl)phenyl]-2-(3-methyl-5-cyanopyridin-2-yl)ethan-1-amine]
26.6 | – | COc1ccc(-c2noc3ccccc23)c([C@@H](N)Cc2ccccn2)c1 [Example 82, (S)-1-[2-(Benzo[d]isoxazol-3-yl)-5-methoxyphenyl]-2-(pyridine-2-yl)ethan-1-amine hydrochloride]
13 | – | N[C@@H](Cc1ccccn1)c1ccc(Br)cc1-c1noc2ccccc12 [Example 85, (S)-1-[2-(Benzo[d]isoxazol-3-yl)-4-bromophenyl]-2-(pyridine-2-yl)ethan-1-amine]
17.4 | – | N[C@@H](Cc1ccccn1)c1cccc(Br)c1-c1noc2ccccc12 [Example 86, (S)-1-[2-(Benzo[d]isoxazol-3-yl)-3-bromophenyl]-2-(pyridine-2-yl)ethan-1-amine hydrochloride]
22.9 | – | N[C@@H](Cc1ccccn1)c1ccccc1-c1noc2ccc(Br)cc12 [Example 113, (S)-1-[2-(5-Bromobenzo[d]isoxazol-3-yl)phenyl]-2-(pyridine-2-yl)ethan-1-amine hydrochloride]
1.6 | – | N#Cc1cccc(C[C@H](N)c2ccccc2-c2noc3cc(Br)ccc23)n1 [Example 120, (S)-{2-Amino-[2-(6-bromobenzo[d]isoxazol-3-yl)phenyl]ethyl}-6-cyanopyridine]
